Entries after “also recorded” stand apart in the source; their conditions may differ. Read-outs that look alike come from different tables or passages of the source.

Usually EC50 stands for the midpoint of the concentration-response curve.

For data set [1], the system named is GS-5806- and AZ-27-resistant RSV. In words: Activity against GS-5806- and AZ-27-selected resistant viruses. Type of data set: cell-based, respiratory syncytial virus. The following applies: own resistant virus.
In data set [2] the test system is recombinant RSV A2-line19F, N protein mutants.
The subject of data set [3] is RSV. In words: Single-round synchronized infection time-of-addition, RT-qPCR endpoint. Type of data set: cell-based, respiratory syncytial virus. The following applies: HEp-2; MOI 3; cold-synchronized; 2x or 20x EC50; added 0-8 hpi; RT-qPCR at 24 hpi. Here is the method:
In order to help determine which step of the viral life cycle EDP-938 blocks multiple in vitro time-of-addition studies were performed. In the first study, EDP-938 was administered to cells infected with RSV-A Long at a MOI of 0.1 at 2 hours pre-infection (-2) or 2, 6, or 24 hours post-infection (hpi), and viral CPE evaluated 5 days later. […] A second time-of-addition study explored the ability of EDP-938 to protect not just a population experiencing a spreading infection, but individual cells already infected with RSV. Using a MOI of 3, which infects approximately 95% of all cells, virus was cold-adsorbed to the cells for 1 hour to synchronize infection before transfer to 37°C to induce fusion (marking the 0 hpi time point). Compound was added at times indicated and a 24 hpi RT-qPCR endpoint was employed to constrain viral replication cycle to a single complete cycle.
For single round infection synchronized infection 25,000 HEp-2 cpw seeded 1-day pre-infection. Plates brought to 4°C, viral infection at 3 MOI calculated for 30,000 cpw incubated at 4°C 1hr. Compound added to 0h plate and plates moved to 37°C. Compound added at 2h, 4h, 6h, and 8h post-incubation (when plates moved to 37°C) to appropriate plates. 24 hpi viral copies measured with RT-qPCR as described above.
For orientation: Quantitative PCR measures a nucleic acid by following its amplification.

The subject of data set [4] is RSV-B VR-955 EDP-938 resistant populations. In words: Susceptibility of EDP-938 resistant RSV-B VR-955 populations. The data set is classed as cell-based, respiratory syncytial virus.
The test system of data set [5] is recombinant RSV A2-line19F, N protein mutants. Put plainly: microbe, parasite or virus in culture. The following applies: human respiratory syncytial virus.
The subject of data set [6] is RSV-A Long. Put plainly: RT-qPCR viral load assay, RSV-A Long in HEp-2 cells. The data set is classed as cell-based. The following applies: human respiratory syncytial virus.
Data set [7] is described as follows: Plasma drug exposure in African Green monkey study. Type of data set: in vivo, African Green monkeys (Chlorocebus). The note with it: both sexes, in vivo, 100 mg/kg BID oral, read-out: mean plasma Ctrough. The source says: The African green monkey model was selected for EDP-938 in vivo studies for its higher level of viral replication versus cotton rats and BALB/c mice. […] In this previous trial, patients who achieved RSV-604 levels in excess of the EC90 experienced a 2.31 log reduction in viral load. […] The lack of antiviral activity observed with RSV-604 could be a function of relatively poor potency compared to EDP-938 (Fig 1) and/or insufficient tissue exposure. While in this study the animals were not sacrificed and thus the drug level in the lung could not be determined, plasma samples were taken at 12h after the last dose (Ctrough) to confirm drug exposure. […] It is reasonable to project that given the same dose or exposure EDP-938 should perform better than RSV-604 in RSV infected patients as well.
A study of EDP-938 and RSV-604 in the African Green monkey (AGM) animal model was performed by BIOQUAL, Inc (Rockville, Maryland). Methods were similar to those run in a study by Ispas et al.. Six (6) male and 6 female AGMs (Chlorocebus) of 4–5 kg were purchased from PrimGen (Hines, Illinois). Each animal was challenged with 2 x 10^5 PFU of RSV A2 viral inoculum (Virapur, San Diego, CA). Four animals (2 per sex) in each group were treated with EDP-938, RSV-604, or vehicle control (0.5% w/v methylcellulose). […]

For the next data set, the system named is RSV A2. Put plainly: RSV-infected African Green monkey model, viral load. The data set is classed as in vivo, African Green monkeys (Chlorocebus). The following applies: 100 mg/kg BID oral gavage; BAL. Here is the method: African Green monkeys (AGMs) are permissive for human RSV infection and support a relatively higher level of viral replication compared to cotton rats and BALB/c mice. It has been previously validated as a non-human primate model for assessing in vivo efficacy of potential RSV vaccines and antiviral drugs. To evaluate the activity of EDP-938 in the AGM model, 4 animals each were treated with 100 mg/kg BID with EDP-938, RSV-604, or vehicle control via oral gavage starting 24 hours prior to RSV challenge and continuing for an additional 5 days. Samples were collected through bronchoalveolar lavage (BAL) and nasopharyngeal (NP) swab at various time points to determine viral load. […] Viral load in the NP swab samples was also determined.
A study of EDP-938 and RSV-604 in the African Green monkey (AGM) animal model was performed by BIOQUAL, Inc (Rockville, Maryland). Methods were similar to those run in a study by Ispas et al.. Six (6) male and 6 female AGMs (Chlorocebus) of 4–5 kg were purchased from PrimGen (Hines, Illinois). Each animal was challenged with 2 x 10^5 PFU of RSV A2 viral inoculum (Virapur, San Diego, CA). Four animals (2 per sex) in each group were treated with EDP-938, RSV-604, or vehicle control (0.5% w/v methylcellulose). The animals were dosed via oral gavage twice daily (every 12 hours), starting 24 hours prior to RSV challenge, and then continuing for an additional 5 days (6 total days of dose administration). Bronchoalveolar lavage (BAL) samples and nasopharyngeal (NP) swabs were collected for viral load determination.

The test system of the next data set is RSV replicon. On the set-up: method as in PMID 25451060. The following applies: compared to AZ-27; cited from earlier work.
Data set [8] concerns RSV-A Long. Put plainly: CPE assay (ATPlite), RSV-A Long in HEp-2 cells. The data set is classed as cell-based. The following applies: human respiratory syncytial virus. Background: Cellular ATP, detected with luciferase, serves as a proxy for viable cell number.
Data set [9] deals with RSV. On the set-up: method as in PMID 31915807. The note with it: patients who achieved RSV-604 levels in excess of the EC90; cited from earlier work.
The subject of data set [10] is RSV. On the set-up: method as in PMID 19707346. The following applies: premature infants; monthly injection; cited from earlier work.
Where [11] appears, read: HEp-2, recombinant RSV Wild-type (WT), HEp2.

With `O=C(NC1CC1)c1cc2c(s1)-c1ccccc1N(C(=O)c1ccc(NC(=O)c3cccnc3N3CCC4(CC3)COC4)cc1)CC2` [AZ-27], in data set [1], the “activity against the virus selected for resistance with the same compound” value is reported as “lost all ability to inhibit their resistant viruses”.

For the molecule `Cc1cn2nc([C@@H]3CCCCN3C(=O)c3cc(Cl)ccc3NS(C)(=O)=O)cc2nc1N1CC[C@H](N)C1` [GS-5806], the “EC50 Fold Change vs. WT” value in data set [2] (recombinant RSV N K107N) turned out to be 0.7 fold; in data set [2] (recombinant RSV N K136R) it was 4.2 fold; in data set [2] (recombinant RSV N L139I), 1.3 fold; in data set [2] (recombinant RSV N M109I), 0.8 fold; in data set [2] (recombinant RSV N M109K) it was 0.5 fold; in data set [2] (recombinant RSV N M109T), 1.6 fold. Also, the “EC50 Fold Change vs. WT” value in data set [2] (recombinant RSV N N105D) was 1.1 fold; in data set [2] (recombinant RSV N S134T), 1.8 fold; in data set [2] (recombinant RSV N V90A), 1.0 fold; in data set [2] (recombinant RSV Wild-type (WT)), 1.0 fold; in data set [4] (RSV-B VR-955 Population 1, N: M109K, L139Q (dual WT/mutant population)), 0.2 fold; in [4] (RSV-B VR-955 Population 2, N: M109T), 0.2 fold. Also, the “EC50 Fold Change vs. WT” value in data set [4] (RSV-B VR-955 Wild-Type) was 1 fold. Besides, the “inhibition of viral RNA production by time of addition” value in the data set on RSV [3] was “reduced when added at 0 hpi and completely lost when added at 8 hpi”. Moreover, in data set [1], the “activity against the virus selected for resistance with the same compound” value was “lost all ability to inhibit their resistant viruses”. In addition, the EC50 was determined as 0.09 ± 0.07 nM in data set [5] (HEp-2, recombinant RSV N K107N); 0.54 ± 0.34 nM in [5] (HEp-2, recombinant RSV N K136R); 0.17 ± 0.15 nM in [5] (HEp-2, recombinant RSV N L139I); 0.11 ± 0.09 nM in data set [5] (HEp-2, recombinant RSV N M109I); 0.06 ± 0.05 nM in [5] (HEp-2, recombinant RSV N M109K); 0.21 nM in data set [5] (HEp-2, recombinant RSV N M109T). In addition, the half-maximal effective concentration (EC50) was 0.14 ± 0.2 nM in [5] (HEp-2, recombinant RSV N N105D); 0.23 ± 0.3 nM in data set [5] (HEp-2, recombinant RSV N S134T); 0.13 nM in data set [5] (HEp-2, recombinant RSV N V90A); 0.13 ± 0.12 nM in data set [5] (setting [11]).

As for `O=C(Nc1ccccc1F)N[C@H]1N=C(c2ccccc2)c2ccccc2NC1=O` [RSV-604], the concentration for a half-maximal effect (EC50) with RSV-A Long [6] (HEp-2, 120 h) is 1980 nM; with RSV-A Long [6] (HEp-2, read-out: EC50, inhibition of viral replication), about 2000 nM; in data set [5] (HEp-2, recombinant RSV N K107N), 1810 nM; in data set [5] (HEp-2, recombinant RSV N K136R), 4300 nM; in data set [5] (HEp-2, recombinant RSV N L139I) it was 9550 nM; in data set [5] (HEp-2, recombinant RSV N M109I) it was 514 ± 159 nM. For the same molecule, the EC50 in data set [5] (HEp-2, recombinant RSV N M109K) came out at 2870 nM; in data set [5] (HEp-2, recombinant RSV N M109T) it was 1860 nM; in [5] (HEp-2, recombinant RSV N N105D) it was 2700 nM; in data set [5] (HEp-2, recombinant RSV N S134T), 2480 nM; in [5] (HEp-2, recombinant RSV N V90A), 1420 nM; in data set [5] (setting [11]), 1150 nM. Further, the EC50 with RSV-A Long [8] (HEp-2, 120 h) is 1430 nM; in the data set on RSV-A Long [8] (HEp-2, read-out: EC50, RSV-A Long-induced CPE), about 1400 nM. In addition, in data set [7], the concentration at 12 h after the last dose turned out to be 637 nM. Besides, the “effect on RSV viral load vs vehicle control” value in the data set on RSV A2 is listed as “did not result in significant RSV viral load reduction; also recorded: unable to reduce viral load in a statistically significant manner”. Besides, the “EC50 Fold Change vs. WT” value was 1.6 fold in [2] (recombinant RSV N K107N); 3.7 fold in data set [2] (recombinant RSV N K136R); 8.3 fold in [2] (recombinant RSV N L139I); 0.4 fold in data set [2] (recombinant RSV N M109I); 2.5 fold in data set [2] (recombinant RSV N M109K); 1.6 fold in data set [2] (recombinant RSV N M109T). Moreover, the “EC50 Fold Change vs. WT” value in data set [2] (recombinant RSV N N105D) stood at 2.3 fold; in [2] (recombinant RSV N S134T), 2.1 fold; in data set [2] (recombinant RSV N V90A), 1.2 fold; in [2] (recombinant RSV Wild-type (WT)), 1.0 fold; in data set [4] (RSV-B VR-955 Wild-Type), 1 fold. Further, the “effect in a replicon assay” value in the data set on RSV replicon was “minimal effect”. Besides, the “reduction in viral load” value with RSV [9] was 2.31 log.

Regarding “palivizumab: monthly injectable monoclonal antibody against RSV”, the “relative reduction in RSV-associated hospitalizations” value with RSV [10] is “approximately 55%”.
